Measurements as given in patent US9932331B2, “Phenyl tetrahydroisoquinoline compound substituted with heteroaryl” (TAISHO PHARMACEUTICAL CO., LTD, priority 2014, dated 2018).
Structures can show the parent of a compound that is named as a salt.

Columns and labels:
[1] = molecular target: T1, human NHE3 (Homo sapiens, UniProt P48764); test: NHE3 inhibition test (recovery of intracellular pH in cell line stably expressing human NHE3); assay type: cell-based; conditions: OK cells deficient in endogenous NHE stably expressing human NHE3; BCECF fluorescence, initial rate of pH recovery; read-out: human NHE3 inhibitory activity IC50
T1 sequence (P48764 26-834): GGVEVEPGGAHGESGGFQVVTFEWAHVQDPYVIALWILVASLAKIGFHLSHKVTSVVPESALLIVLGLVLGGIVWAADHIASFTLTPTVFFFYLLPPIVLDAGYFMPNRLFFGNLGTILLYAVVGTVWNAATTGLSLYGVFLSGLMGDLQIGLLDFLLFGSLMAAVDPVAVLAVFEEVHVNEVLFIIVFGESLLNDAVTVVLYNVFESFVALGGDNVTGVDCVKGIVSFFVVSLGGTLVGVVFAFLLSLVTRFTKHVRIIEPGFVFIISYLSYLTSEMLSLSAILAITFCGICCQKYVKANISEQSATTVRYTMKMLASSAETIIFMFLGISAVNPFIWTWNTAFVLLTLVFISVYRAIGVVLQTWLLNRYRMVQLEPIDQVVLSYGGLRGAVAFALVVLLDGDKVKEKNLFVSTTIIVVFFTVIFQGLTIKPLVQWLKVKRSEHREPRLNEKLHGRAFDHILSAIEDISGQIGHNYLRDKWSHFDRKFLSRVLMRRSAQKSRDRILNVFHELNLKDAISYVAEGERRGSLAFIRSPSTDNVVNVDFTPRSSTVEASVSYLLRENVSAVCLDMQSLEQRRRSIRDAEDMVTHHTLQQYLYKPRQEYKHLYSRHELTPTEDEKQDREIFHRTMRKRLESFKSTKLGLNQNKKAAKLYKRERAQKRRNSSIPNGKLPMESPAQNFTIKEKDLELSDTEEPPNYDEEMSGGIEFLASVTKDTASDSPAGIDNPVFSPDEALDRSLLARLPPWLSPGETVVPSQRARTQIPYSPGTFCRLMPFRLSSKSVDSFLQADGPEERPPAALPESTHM
Method in brief: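 IC50 is the concentration halving the initial rate of Na-triggered intracellular pH recovery, tracked by BCECF fluorescence, in NH4Cl-acidified cells. Cells: NHE-deficient OK line stably transfected with human NHE3; compound added in Na-free pH 7.4 buffer.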

[2] = system: SD rat; test: 32P-phosphate oral loading test using SD rat (phosphorus absorption inhibitory effect); assay type: in vivo; conditions: SD male rats, plasma radioactivity 30 minutes after 32P-phosphate solution, vs control group; for inhibition in vivo at 3 mg/kg: oral dose 3 mg/kg
Method: Phosphorus Absorption Inhibitory Effect of the Compound of the Present Invention in ^32P-Phosphate Oral Loading Test Using SD Rat
8-week-old SD male rats (Japan SLC, Inc.) were used as laboratory animals. Each test compound was suspended or dissolved at a concentration of 0.2 mg/mL or 0.6 mg/mL in Japanese Pharmacopoeia water for injection (manufactured by Hikari Pharmaceutical Co., Ltd.) and orally administered to each rat at a dose of 5 ml/kg body weight. Japanese Pharmacopoeia water for injection was administered at the same dose as above to a control group. 5 minutes after the administration of the test compound or water for injection, a phosphate solution (1.3 mM NaH2PO4) containing 32P-phosphate (PerkinElmer Inc.) was administered thereto at a dose of 5 ml/kg. 30 minutes after the administration of the phosphate solution, blood was collected from the tail vein, and the blood sample was immediately mixed with EDTA-2K (manufactured by Dojindo Laboratories). Then, the mixture was centrifuged at 3000 rpm at 4° C. for 10 minutes to recover plasma.
The radioactivity in 100 μL of the plasma was measured using a liquid scintillation counter and used as a phosphate absorption count. The radioactivity in the plasma of the control group was used as a control, and the rate of inhibition of phosphate absorption was determined according to the following expression: Rate of inhibition of phosphate absorption (%)=(1−Phosphate absorption count of the test compound administration group/Phosphate absorption count of the control group)×100 (2) Results

[3] = Rattus norvegicus, 0.5 h, read-out: Rate of inhibition of phosphate absorption

SMILES	IC50 [1]	inhibition in vivo at 3 mg/kg [2, 3]	Rate of inhibition of phosphate absorption ([2]; oral dose 1 mg/kg)	inhibition in vivo at 1 mg/kg ([2]; Rattus norvegicus, 0.5 h, oral dose 1 mg/kg, read-out: Rate of inhibition of phosphate absorption)
CN1Cc2c(Cl)cc(Cl)cc2[C@H](c2cccc(-c3cn(CCOCCOCCOCCOCCOCCNC(=O)NCCCCNC(=O)NCCOCCOCCOCCOCCOCCn4cc(-c5cccc([C@@H]6CN(C)Cc7c(Cl)cc(Cl)cc76)c5)nn4)nn3)c2)C1.Cl [Example 7-39, 1,1′-Butane-1,4-diylbis {3-[17-(4-{3-[(4S)-6,8-dichloro-2-methyl-1,2,3,4-tetrahydroisoquinolin-4-yl]phenyl}-1H-1,2,3-triazol-1-yl)-3,6,9,12,15-pentaoxaheptadec-1-yl]urea}hydrochloride]	3.2 nM		38%	
CN1Cc2c(Cl)cc(Cl)cc2[C@H](c2cccc(-c3cc(NCCOCCOCCOCCNC(=O)Nc4ccc(NC(=O)NCCOCCOCCOCCNc5cc(-c6cccc([C@@H]7CN(C)Cc8c(Cl)cc(Cl)cc87)c6)ncn5)cc4)ncn3)c2)C1 [Example 7-16, 1,1′-Benzene-1,4-diylbis(3-{2-[2-(2-{2-[(6-{3-[(4S)-6,8-dichloro-2-methyl-1,2,3,4-tetrahydroisoquinolin-4-yl]phenyl}pyrimidin-4-yl)amino]ethoxy}ethoxy)ethoxy]ethyl}urea) hydrochloride]	16.6 nM	34%		
CN1Cc2c(Cl)cc(Cl)cc2[C@H](c2cccc(-c3nnn(CCOCCOCCNC(=O)Nc4ccc(NC(=O)NCCOCCOCCn5nnc(-c6cccc([C@@H]7CN(C)Cc8c(Cl)cc(Cl)cc87)c6)n5)cc4)n3)c2)C1 [Example 7-10, 1,1′-Benzene-1,4-diylbis[3-(2-{2-[2-(5-{3-[(4S)-6,8-dichloro-2-methyl-1,2,3,4-tetrahydroisoquinolin-4-yl]phenyl}-2H-tetrazol-2-yl)ethoxy]ethoxy}ethyl)urea]hydrochloride]	13.7 nM	35%		
CN1Cc2c(Cl)cc(Cl)cc2[C@H](c2cccc(-c3cn(CCOCCOCCOCCOCCOCCNC(=O)[C@H](O)[C@@H](O)C(=O)NCCOCCOCCOCCOCCOCCn4cc(-c5cccc([C@@H]6CN(C)Cc7c(Cl)cc(Cl)cc76)c5)nn4)nn3)c2)C1 [Example 6-10, (2R,3R)—N,N′-Bis[17-(4-{3-[(4S)-6,8-dichloro-2-methyl-1,2,3,4-tetrahydroisoquinolin-4-yl]phenyl}-1H-1,2,3-triazol-1-yl)-3,6,9,12,15-pentaoxaheptadec-1-yl]-2,3-dihydroxybutanediamide hydrochloride]	6.2 nM	38%		
CN1Cc2c(Cl)cc(Cl)cc2[C@H](c2cccc(-c3cnn(CCOCCOCCNC(=O)NCCCCNC(=O)NCCOCCOCCn4cc(-c5cccc([C@@H]6CN(C)Cc7c(Cl)cc(Cl)cc76)c5)cn4)c3)c2)C1 [Example 7-5, 1,1′-Butane-1,4-diylbis[3-(2-{2-[2-(4-{3-[(4S)-6,8-dichloro-2-methyl-1,2,3,4-tetrahydroisoquinolin-4-yl]phenyl}-1H-pyrazol-1-yl)ethoxy]ethoxy}ethyl)urea]diformate]	4.5 nM	23%		
CN1Cc2c(Cl)cc(Cl)cc2[C@H](c2cccc(-c3cn(CCOCCOCCOCCNC(=O)NCCCCNC(=O)NCCOCCOCCOCCn4cc(-c5cccc([C@@H]6CN(C)Cc7c(Cl)cc(Cl)cc76)c5)nn4)nn3)c2)C1 [Example 6-2, 1,1′-Butane-1,4-diylbis {3-[2-(2-{2-[2-(4-{3-[(4S)-6,8-dichloro-2-methyl-1,2,3,4-tetrahydroisoquinolin-4-yl]phenyl}-1H-1,2,3-triazol-1-yl)ethoxy]ethoxy}ethoxy)ethyl]urea}hydrochloride]	5.7 nM			47%
CN1Cc2c(Cl)cc(Cl)cc2[C@H](c2cccc(-c3nnn(CCOCCOCCOCCOCCNC(=O)NCCCCNC(=O)NCCOCCOCCOCCOCCn4nnc(-c5cccc([C@@H]6CN(C)Cc7c(Cl)cc(Cl)cc76)c5)n4)n3)c2)C1 [Example 7-29, 1,1′-Butane-1,4-diylbis {3-[14-(5-{3-[(4S)-6,8-dichloro-2-methyl-1,2,3,4-tetrahydroisoquinolin-4-yl]phenyl}-2H-tetrazol-2-yl)-3,6,9,12-tetraoxatetradec-1-yl]urea}hydrochloride]	6.9 nM	10%		
CN1Cc2c(Cl)cc(Cl)cc2[C@H](c2cccc(-c3cn(CCOCCOCCOCCOCCNC(=O)[C@@H](O)[C@H](O)[C@H](O)[C@@H](O)C(=O)NCCOCCOCCOCCOCCn4cc(-c5cccc([C@@H]6CN(C)Cc7c(Cl)cc(Cl)cc76)c5)nn4)nn3)c2)C1 [Example 6-11, (2R,3S,4R,5S)—N,N′-Bis[14-(4-{3-[(4S)-6,8-dichloro-2-methyl-1,2,3,4-tetrahydroisoquinolin-4-yl]phenyl}-1H-1,2,3-triazol-1-yl)-3,6,9,12-tetraoxatetradec-1-yl]-2,3,4,5-tetrahydroxyhexanediamide hydrochloride]	1.4 nM	33%		

Further lines, with some results ahead:

IC50 [1]	SMILES	inhibition in vivo at 3 mg/kg [2, 3]	Rate of inhibition of phosphate absorption ([2]; oral dose 1 mg/kg)	inhibition in vivo at 1 mg/kg ([2]; Rattus norvegicus, 0.5 h, oral dose 1 mg/kg, read-out: Rate of inhibition of phosphate absorption)
2.8 nM	CN1Cc2c(Cl)cc(Cl)cc2[C@H](c2cccc(-c3nnn(CCOCCOCCOCCNC(=O)NCCCCNC(=O)NCCOCCOCCOCCn4nnc(-c5cccc([C@@H]6CN(C)Cc7c(Cl)cc(Cl)cc76)c5)n4)n3)c2)C1 [Example 7-30, 1,1′-Butane-1,4-diylbis {3-[2-(2-{2-[2-(5-{3-[(4S)-6,8-dichloro-2-methyl-1,2,3,4-tetrahydroisoquinolin-4-yl]phenyl}-2H-tetrazol-2-yl)ethoxy]ethoxy}ethoxy)ethyl]urea}hydrochloride]	28%		
10.9 nM	CN1Cc2c(Cl)cc(Cl)cc2[C@H](c2cccc(-c3cn(CCOCCOCCOCCOCCOCCNC(=O)Nc4ccc(NC(=O)NCCOCCOCCOCCOCCOCCn5cc(-c6cccc([C@@H]7CN(C)Cc8c(Cl)cc(Cl)cc87)c6)nn5)cc4)nn3)c2)C1 [Example 7-46, 1,1′-Benzene-1,4-diylbis {3-[17-(4-{3-[(4S)-6,8-dichloro-2-methyl-1,2,3,4-tetrahydroisoquinolin-4-yl]phenyl}-1H-1,2,3-triazol-1-yl)-3,6,9,12,15-pentaoxaheptadec-1-yl]urea}hydrochloride]	23%		
5.7 nM	CN1Cc2c(Cl)cc(Cl)cc2[C@H](c2cccc(-c3cn(CCOCCOCCOCCOCCNC(=O)Nc4ccc(NC(=O)NCCOCCOCCOCCOCCn5cc(-c6cccc([C@@H]7CN(C)Cc8c(Cl)cc(Cl)cc87)c6)nn5)cc4)nn3)c2)C1 [Example 7-45, 1,1′-Benzene-1,4-diylbis {3-[14-(4-{3-[(4S)-6,8-dichloro-2-methyl-1,2,3,4-tetrahydroisoquinolin-4-yl]phenyl}-1H-1,2,3-triazol-1-yl)-3,6,9,12-tetraoxatetradec-1-yl]urea}hydrochloride]	29%		
2.5 nM	CN1Cc2c(Cl)cc(Cl)cc2[C@H](c2cccc(-c3cc(OCCOCCOCCOCCNC(=O)[C@H](O)[C@@H](O)C(=O)NCCOCCOCCOCCOc4cc(-c5cccc([C@@H]6CN(C)Cc7c(Cl)cc(Cl)cc76)c5)ncn4)ncn3)c2)C1 [Example 8-17, (2R,3R)-N,N′-Bis{2-[2-(2-{2-[(6-{3-[(4S)-6,8-dichloro-2-methyl-1,2,3,4-tetrahydroisoquinolin-4-yl]phenyl}pyrimidin-4-yl)oxy]ethoxy}ethoxy)ethoxy]ethyl}-2,3-dihydroxybutanediamide hydrochloride]	18%		
